Earlier results in US20050065219A1, “Treatment of demyelinating conditions” (priority 2003, published 2005).

How the values were obtained:
[1] = target: brain membranes ([3H]dizocilpine site) (Homo sapiens, UniProt Q05586); conditions: Chen et al. 1992
[2] = rats (Keilhoff et al. 1992)
[3] = target: PCP and MK-801 binding sites of the NMDA receptor (Homo sapiens, UniProt Q05586); conditions: postmortem human frontal cortex, at therapeutic concentrations (Kornhuber et al. 1989)
[4] = clinical use for many years (Kornhuber et al. 1994)
[5] = system: cortical and retinal neuron cultures; conditions: cortical and retinal neuron cultures (Deyer et al. 1990)
[6] = system: nicotinic acetylcholine receptors; conditions: Masou et al. 1986
NMDA receptor channel = NMDA receptor channel (Homo sapiens, UniProt Q05586); conditions: Bormann 1989
[7] = system: 5-hydroxytryptamine 5-HT3 receptors; conditions: Reiser et al. 1988

## CC12CC3CC(C)(C1)CC(N)(C3)C2 [memantine, 1-amino-3,5-dimethyladamantane]
[1]
  [3H]dizocilpine binding to brain membranes: inhibits
[2]
  quinolic acid-induced hippocampal damage: prevents
[3]
  binding to PCP and MK-801 binding sites of the NMDA receptor: binds
[4]
  tolerability in clinical use: well tolerated
[5]
  protection from toxicity of glutamate, NMDA and HIV-1 coat protein gp120: protects
[6]
  block of nicotinic acetylcholine receptors: blocks
NMDA receptor channel
  antagonism of the NMDA receptor channel: micromolar antagonist
[7]
  block of 5-HT3 receptors: blocks
